# In patent US20220023250A1, “ISOPROPYLCARBONATE BENZOYL PEROXIDE COMPOSITIONS AND METHODS OF USE” (Galderma Holding SA, priority 2019, published 2022):
# Key:
# [1] = Maximum solubility in non-volatile part of vehicle gel and in reconstituted sebum; format: physicochemical; conditions: for maximum solubility, TA reconstituted liquid sebum (22 H) / maximum solubility, TA reconstituted liquid sebum (extemporaneous): liquid fraction of the reconstituted sebum; for maximum solubility, TA reconstituted liquid sebum (22 H) / maximum solubility, TA non-volatile (22 H) / maximum solubility, Liquid sebum reconstituted at 32° C. (22 H): 22 H agitation; for maximum solubility, TA non-volatile (22 H): non-volatile part of the Composition A vehicle gel
# Source text: In the case of active principles in dispersed form, these can dissolve after application, either in the sebum or in the non-volatile part of the formulation. […] (22 H agitation)
# [2] = Maximum solubility of Isopropylcarbonate Benzoyl Peroxide in oils; format: physicochemical
# Method: First, the maximum solubilities of Isopropylcarbonate Benzoyl Peroxide in various oils was assessed in the following table.
# [3] = Compatibility of additives (keratolytic agents, opacifying agents) with 1% CD08467 gel based composition 0347.1000; format: physicochemical; conditions: for Notes (reason of incompatibility): Table 6, keratolytic additive in gel 0347.1000; for compatibility of keratolytic agents: summary of Table 6
# Method: For this study, the following gel based composition was tested:
# The following keratolytic agents were tested with the gel based composition indicated above:
# The goal of using an opacifier is to mainly “mask” the evolution of the orange-brown color that appears over time either or the orange color present from T0. […] The chemical and physical stabilities were evaluated over 3 months at RT and 40° C.
# The following opacifying agents were tested with the gel based composition indicated above: […]
# [4] = Compatibility with oils: chemical and physical stability of 2.5% formulations, 3 months RT and 40° C.; format: physicochemical
# Method: To assess the possibility of a cream formulation that restores the cutaneous barrier, the compatibility of Isopropylcarbonate Benzoyl Peroxide with oils was assessed.
# Further the chemical and physical stabilities of the formulations containing 2.5% Isopropylcarbonate Benzoyl Peroxide with various oils were assessed after storage at 3 months RT and 40° C. The value of 2.5% was chosen in order to allow for comparisons to an equivalent formulation containing 2.5% benzoyl peroxide instead of 2.5% Isopropylcarbonate Benzoyl Peroxide.
# [5] = series with and without TiO2
# [6] = in COS SILKFLO ® 366 (POLYDECENE, Non-polar)
# [7] = in ISOSTEARYL ISOSTEARATE (Average polarity)
# [8] = in PARLEAM ® (HYDROGENATED POLYISOBUTENE, Non-polar)
# [9] = in PRIMOL ™ 352 (MINERAL OIL, Non-polar)
# [10] = in SILICON FLUID 20CST (POLYDIMETHYLSILOXANE, Average polarity)
# [11] = in ST-CYCLOMETHICONE 5 NF (Average polarity)
compound,measurement,setting,value
"O=C(OOC(=O)c1ccccc1)c1ccccc1 [BPO, benzoyl peroxide]","maximum solubility, TA reconstituted liquid sebum (22 H)",[1],1.4%
same,"maximum solubility, TA reconstituted liquid sebum (extemporaneous)",[1],1.1%
same,"maximum solubility, TA non-volatile (22 H)",[1],0.35%
same,"maximum solubility, Liquid sebum reconstituted at 32° C. (22 H)",[1],1.8%
CC(C)OC(=O)Oc1ccccc1C(=O)OOC(=O)c1ccccc1 [CD08467],"maximum solubility, TA reconstituted liquid sebum (22 H)",[1],1.6%
same,"maximum solubility, TA reconstituted liquid sebum (extemporaneous)",[1],0.25%
same,"maximum solubility, TA non-volatile (22 H)",[1],0.25%
same,"maximum solubility, Liquid sebum reconstituted at 32° C. (22 H)",[1],1.6%
same,% Max. Solution,[2]; [6],0.1498%
same,% max sol. visual,[2]; [6],0.18%
same,% Max. Solution,[2]; [7],0.8679%
same,% max sol. visual,[2]; [7],1.39%
same,% Max. Solution,[2]; [8],0.1862%
same,% max sol. visual,[2]; [8],0.50%
same,% Max. Solution,[2]; [9],0.1867%
same,% max sol. visual,[2]; [9],0.41%
same,% Max. Solution,[2]; [10],0.0735%
same,% max sol. visual,[2]; [10],0.18%
same,% Max. Solution,[2]; in SQUALANE PE (Non-polar),0.1781%
same,% max sol. visual,[2]; in SQUALANE PE (Non-polar),0.18%
same,% Max. Solution,[2]; [11],0.1253%
same,% max sol. visual,[2]; [11],0.33%
same,% Max. Solution,[2]; in WATER (Polar),Not measurable
same,% Max. Solution,[2]; meadowfoam seed oil,1.2925%
same,% max sol. visual,[2]; meadowfoam seed oil,1.96%
O=C(O)CO [GLYCOLIC ACID],Notes (reason of incompatibility),[3],Fall in value 1 m
same,compatibility of keratolytic agents,[3],compatible
NCCCC[C@H](N)C(=O)O [L-LYSINE],Notes (reason of incompatibility),[3],Strong coloration
CC(O)C(=O)O (centres unmarked) [LACTIC ACID],compatibility of keratolytic agents,[3],compatible
O=C(O)CC(O)C(=O)O (centres unmarked) [MALIC ACID],compatibility of keratolytic agents,[3],compatible
O=P(O)(O)O[C@H]1[C@H](OP(=O)(O)O)[C@@H](OP(=O)(O)O)[C@H](OP(=O)(O)O)[C@@H](OP(=O)(O)O)[C@H]1OP(=O)(O)O [PHYTIC ACID],compatibility of keratolytic agents,[3],compatible
O=C(O)c1ccccc1O [SALICYLIC ACID],Notes (reason of incompatibility),[3],Fall in value 1 m
CC(C)CCCC(C)CCCC(C)CCCCC(C)CCCC(C)CCCC(C)C (centres unmarked) [SQUALANE PE],compatibility of Isopropylcarbonate Benzoyl Peroxide with oils,[4]; Table 8,compatible
"C[Si]1(C)O[Si](C)(C)O[Si](C)(C)O[Si](C)(C)O[Si](C)(C)O1 [ST-CYCLOMETHICONE 5 NF, CYCLOMETHICONE 5]",Notes,"[4]; Table 8, comparison with equivalent 2.5% benzoyl peroxide formulation",Intense orange coloration
"O=C([O-])CN(CCN(CC(=O)[O-])CC(=O)O)CC(=O)O.[Na+].[Na+] [disodium EDTA, disodium ethylenediaminetetraacetic acid (EDTA)]",effect of component on stability of the formulation,[5],counter the chemically instability
